Results published in the supplement of paper PMC11208160.

Assay: recombinant UMI read abundance after kanamycin selection (control-corrected) (log10(CPM+1)); higher = more efficient recombination; extreme values may be limits of the assay; sequences stand for … in AGTGCAGAGAAAATCGGCCAGTTTTCTCTGCCTGCAGTCCGCATGCCGTGGGACCCCTTGGGTTCTAACCTGTTGCCTAGATTTATGCAGCGGACTGCCTTTCTCCCAAAGTGATAAACCGG…AGGTTGGTTTCACT; site = the 11-nt donor
In short: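 Values are reported as log10(CPM+1), obtained by converting sequencing counts to CPM, averaging replicates and scaling by control-derived factors. The counts came from recombinant UMIs amplified by PCR across the donor–target junction. These UMIs came from a pooled Escherichia coli screen of donor and donor-binding-loop pairs for the IS621 bridge recombinase, plated with IPTG (0.07 mM) plus kanamycin or left unselected, in two replicates each.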
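Also: IS621 bridge recombinase in Escherichia coli cells against a fixed T5 target plasmid.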

Row | Sequence | recombinant UMI read abundance (log10)
1 | TCTAATTCATGGACCGGTTTTCCCGGTAATCCGTATTTGCC (site TCCAATTCTGG) | 0
2 | CCCTAGCCATGGACCGGTTTTCCCGGTAATCCGTATTTGCC (site CCCTAGCCTGA) | 0
3 | TATTTCGCATGGACCGGTTTTCCCGGTAATCCGTATTTGTG (site TATTTGGCTCA) | 0
4 | AGCGCAGCATGGACCGGTTTTCCCGGTAATCCGTATTTGGG (site AGCCCAGCTCC) | 0.0111
5 | GTCAGCCCATGGACCGGTTTTCCCGGTAATCCGTATTTGAC (site GTCAGCCCTGT) | 1.33
6 | ACACGAACATGGACCGGTTTTCCCGGTAATCCGTATTTGTC (site ACACGCACTGA) | 0
7 | GCGCTCACATGGACCGGTTTTCCCGGTAATCCGTATTTGAT (site GTGCTCACTAT) | 0.28
8 | CGTGACTCATGGACCGGTTTTCCCGGTAATCCGTATTTGCG (site CGTGACTCTCG) | 2.74
9 | AGTCTAGCATGGACCGGTTTTCCCGGTAATCCGTATTTGTT (site AGACTAGCTAA) | 0.0182
10 | CGAGATCCATGGACCGGTTTTCCCGGTAATCCGTATTTGTT (site CGAGATCCTAA) | 1.4
11 | TGCTAGGCATGGACCGGTTTTCCCGGTAATCCGTATTTGCT (site TGCTAGGCTAA) | 0.0205
12 | ATCTAGGCATGGACCGGTTTTCCCGGTAATCCGTATTTGGC (site ATATAGGCTGC) | 0
13 | GAATTCCCATGGACCGGTTTTCCCGGTAATCCGTATTTGCT (site CAATTCCCTAG) | 0.484
14 | TACTAGACATGGACCGGTTTTCCCGGTAATCCGTATTTGCT (site TACTTGACTAG) | 0
15 | ACAGTATCATGGACCGGTTTTCCCGGTAATCCGTATTTGCA (site ATAGTAGCTTG) | 0.354
16 | GATGATCCATGGACCGGTTTTCCCGGTAATCCGTATTTGCT (site GATCATCCTAG) | 0
17 | GCAGTATCATGGACCGGTTTTCCCGGTAATCCGTATTTGCT (site ACAGTATCTTG) | 0
18 | GCGATGCCATGGACCGGTTTTCCCGGTAATCCGTATTTGGG (site GCGAAGCCTCC) | 0.00846
19 | AGGTGACCATGGACCGGTTTTCCCGGTAATCCGTATTTGCC (site AGGTGACCTGG) | 0

Row | Sequence | recombinant UMI read abundance (log10)
20 | GTGCTCACATGGACCGGTTTTCCCGGTAATCCGTATTTGAT (site GAGCTCACTAT) | 0.557
21 | AGGCATACATGGACCGGTTTTCCCGGTAATCCGTATTTGCA (site AGGCATACTTG) | 2.15
22 | GTAGTGACATGGACCGGTTTTCCCGGTAATCCGTATTTGCC (site GTAGTGACTGG) | 2.58
23 | GGGAATCCATGGACCGGTTTTCCCGGTAATCCGTATTTGAA (site GGAAATCCTTT) | 0.0039
24 | CGGATTTCATGGACCGGTTTTCCCGGTAATCCGTATTTGTT (site CGGATTTCTAA) | 0.891
25 | TACCTAGCATGGACCGGTTTTCCCGGTAATCCGTATTTGAA (site TACCTAGCTTT) | 0.00543
26 | CACTAGGCATGGACCGGTTTTCCCGGTAATCCGTATTTGGA (site CACTTGGCTTC) | 0.0198
27 | CTACTAACATGGACCGGTTTTCCCGGTAATCCGTATTTGGA (site TTACTAACTTC) | 0.417
28 | ACACATCCATGGACCGGTTTTCCCGGTAATCCGTATTTGAT (site ACACATCCTCT) | 0.0152
29 | AGGTACACATGGACCGGTTTTCCCGGTAATCCGTATTTGCA (site AGGTACACTTG) | 2.46
30 | TCAGAGACATGGACCGGTTTTCCCGGTAATCCGTATTTGTG (site TCAGAGACTCA) | 1.03
31 | CTAGTAACATGGACCGGTTTTCCCGGTAATCCGTATTTGAC (site CTAGTAACTGT) | 3.1
32 | AGCCGTACATGGACCGGTTTTCCCGGTAATCCGTATTTGCT (site GGCCGTACTAG) | 0
33 | CAAGTCACATGGACCGGTTTTCCCGGTAATCCGTATTTGCG (site CAAGTCACTCG) | 2.34
34 | ACTAATACATGGACCGGTTTTCCCGGTAATCCGTATTTGGC (site CCTAATACTGC) | 0
35 | CCATCTACATGGACCGGTTTTCCCGGTAATCCGTATTTGTG (site CCATCTACTCA) | 0.0215
36 | TACTTGGCATGGACCGGTTTTCCCGGTAATCCGTATTTGCT (site TACTTGGCTAG) | 0.00377
37 | GTAGTATCATGGACCGGTTTTCCCGGTAATCCGTATTTGGC (site GTAGTATCTGC) | 3.51
38 | CTAGGTGCATGGACCGGTTTTCCCGGTAATCCGTATTTGAT (site CCAGGTGCTAT) | 1.39
